The record followed here is patent publication US10577363B2, “Substituted piperidine compounds” (EPIZYME, INC., priority 2014, dated 2020).

Test [1] concerns the target T1, SMYD3 (Homo sapiens (Human), UniProt Q9H7B4). Description: SMYD3 biochemical assay (SPA, 3H-SAM methylation of MEKK2 protein substrate). As to conditions: read-out: SMYD3 Biochem IC50*. The procedure, abridged: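 Methylation of N-terminally GST-tagged MEKK2 by untagged full-length human SMYD3, using 3H-SAM, in pH 8.0 Tris buffer with TCEP, BSG and Tween 20; enzyme and compound sat 30 min at room temperature before substrate addition. Stopped with 100 uM (final) cold SAM; incorporation read by scintillation proximity as dpm/cpm.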

In test [2] the target is T1, SMYD3. In words: SMYD3 cell assay (Trimethyl-MEKK2 In-Cell Western in 293T/17 cells). In kind it is cell-based. As to conditions: read-out: SMYD3 Cell IC50*. The procedure, abridged: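 In-Cell Western readout: methanol-fixed cells stained for trimethyl-MEKK2 and flag tag, ratio per well normalized to DMSO and background controls.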
The mark [3] stands for this setting: IC50 values are an average of n = 1 to n = 50.

T1 sequence (Q9H7B4 whole entry): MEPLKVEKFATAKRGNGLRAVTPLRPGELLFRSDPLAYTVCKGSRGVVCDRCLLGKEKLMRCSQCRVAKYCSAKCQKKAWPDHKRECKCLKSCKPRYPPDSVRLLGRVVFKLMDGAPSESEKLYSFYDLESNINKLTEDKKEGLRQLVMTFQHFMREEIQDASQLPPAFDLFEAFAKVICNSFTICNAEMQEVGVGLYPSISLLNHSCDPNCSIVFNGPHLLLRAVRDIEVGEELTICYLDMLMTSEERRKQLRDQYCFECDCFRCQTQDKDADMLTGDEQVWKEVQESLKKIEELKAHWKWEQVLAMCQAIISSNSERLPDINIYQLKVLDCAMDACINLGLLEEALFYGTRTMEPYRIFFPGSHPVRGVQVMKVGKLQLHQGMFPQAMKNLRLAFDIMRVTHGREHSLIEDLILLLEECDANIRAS

A word on the IC50: it is the concentration needed to halve the response being measured. As to `O=C(N[C@H]1C[C@H]2CC[C@@H](C1)N2S(=O)(=O)N1CCC(Nc2ncccn2)CC1)c1cc(C2CC2)on1` [compound 958, 5-cyclopropyl-N-((1R,3r,5S)-8-((4-(pyrimidin-2-ylamino)piperidin-1-yl)sulfonyl)-8-azabicyclo[3.2.1]octan-3-yl)isoxazole-3-carboxamide], the IC50 on SMYD3 [1] is 76.7 nM; on SMYD3 [2], 486 nM.
Taken in the same sequence, the figures for `NCCc1ccc(S(=O)(=O)N2[C@@H]3CC[C@H]2C[C@@H](NC(=O)c2cc(C4CC4)on2)C3)cc1` [compound 959, N-((1R,3r,5S)-8-((4-(2-aminoethyl)phenyl)sulfonyl)-8-azabicyclo[3.2.1]octan-3-yl)-5-cyclopropylisoxazole-3-carboxamide] were 79.7 nM and not below 10000 nM.
For `C[C@H]1C[C@@H](NC(=O)c2cc(C3CC3)on2)CCN1S(=O)(=O)N1CCNC[C@H]1c1ccccc1` [compound 960, 5-cyclopropyl-N-((2S,4S)-2-methyl-1-(((R)-2-phenylpiperazin-1-yl)sulfonyl)piperidin-4-yl)isoxazole-3-carboxamide], in that order: 80.6 nM and 1350 nM.
For `CN(CCC(F)(F)F)C1CCN(S(=O)(=O)N2[C@@H]3CC[C@H]2C[C@@H](NC(=O)c2cc(C4CC4)on2)C3)CC1` [compound 961, 5-cyclopropyl-N-((1R,3r,5S)-8-((4-(methyl(3,3,3-trifluoropropyl)amino)piperidin-1-yl)sulfonyl)-8-azabicyclo[3.2.1]octan-3-yl)isoxazole-3-carboxamide], in that order: 81.6 nM and 364 nM.
For `CNC(C)(C)c1ccc(S(=O)(=O)N2[C@@H]3CC[C@H]2C[C@@H](NC(=O)c2cc(C4CC4)on2)C3)cc1` [compound 962, 5-cyclopropyl-N-((1R,3r,5S)-8-((4-(2-(methylamino)propan-2-yl)phenyl)sulfonyl)-8-azabicyclo[3.2.1]octan-3-yl)isoxazole-3-carboxamide], the IC50 was determined as 81.8 nM on SMYD3 [1] and 695 nM at SMYD3 [2].
For `CCC1CN(C)CCN1S(=O)(=O)N1[C@@H]2CC[C@H]1C[C@@H](NC(=O)c1cc(C3CC3)on1)C2` (stereo partly drawn) [compound 963, 5-cyclopropyl-N-((1R,3r,5S)-8-((2-ethyl-4-methylpiperazin-1-yl)sulfonyl)-8-azabicyclo[3.2.1]octan-3-yl)isoxazole-3-carboxamide], in that order: 82.9 nM and 690 nM.
`CN1CCCC[C@@H]1CS(=O)(=O)N1[C@@H]2CC[C@H]1C[C@@H](NC(=O)c1cc(C3CC3)on1)C2` [compound 964, 5-cyclopropyl-N-((1R,3R,5S)-8-((((R)-1-methylpiperidin-2-yl)methyl)sulfonyl)-8-azabicyclo[3.2.1]octan-3-yl)isoxazole-3-carboxamide]: the IC50 was determined as 83 nM at SMYD3 [1] and 450 nM at SMYD3 [2].
Taken in the same sequence, the figures for `CCCc1cc(C(=O)N[C@H]2C[C@H]3CC[C@@H](C2)N3S(=O)(=O)CC2CCN(C)CC2)no1` [compound 965, N-((1R,3r,5S)-8-(((1-methylpiperidin-4-yl)methyl)sulfonyl)-8-azabicyclo[3.2.1]octan-3-yl)-5-propylisoxazole-3-carboxamide] were 85.3 nM and 1310 nM.
Consider `O=C(N[C@H]1CCN(S(=O)(=O)N2CCNCC2)[C@@H](Cc2ccccc2)C1)c1cc(C2CC2)on1` [compound 966, N-((2S,4S)-2-benzyl-1-(piperazin-1-ylsulfonyl)piperidin-4-yl)-5-cyclopropylisoxazole-3-carboxamide], for which the half-maximal inhibitory concentration (IC50) was found to be 86.8 nM at SMYD3 [1] and 1200 nM at SMYD3 [2].
With `O=C(N[C@H]1C[C@H]2CC[C@@H](C1)N2S(=O)(=O)N1CC2CCC(C1)N2CCN1CCOCC1)c1cc(C2CC2)on1` [compound 967, 5-cyclopropyl-N-((1R,3r,5S)-8-((8-(2-morpholinoethyl)-3,8-diazabicyclo[3.2.1]octan-3-yl)sulfonyl)-8-azabicyclo[3.2.1]octan-3-yl)isoxazole-3-carboxamide], the results for the IC50 at SMYD3 [1] (setting [3]) and at SMYD3 [2] (setting [3]) were 87 nM and 503 nM, respectively.
For `NCc1ccc(S(=O)(=O)N2[C@@H]3CC[C@H]2C[C@@H](NC(=O)c2cc(C4CC4)on2)C3)c(Cl)c1` [compound 968, N-((1R,3r,5S)-8-((4-(aminomethyl)-2-chlorophenyl)sulfony1)-8-azabicyclo[3.2.1]octan-3-yl)-5-cyclopropylisoxazole-3-carboxamide], in that order: 88.3 nM and not below 10000 nM.
For `CN1CCC[C@@H]1CS(=O)(=O)N1[C@@H]2CC[C@H]1C[C@@H](NC(=O)c1cc(C3CC3)on1)C2` [compound 969, 5-cyclopropyl-N-((1R,3R,5S)-8-((((R)-1-methylpyrrolidin-2-yl)methyl)sulfonyl)-8-azabicyclo[3.2.1]octan-3-yl)isoxazole-3-carboxamide], in that order: 88.6 nM and 440 nM.
For `CCc1cc(C(=O)N[C@H]2C[C@H]3CC[C@@H](C2)N3S(=O)(=O)c2ccc(C(C)(C)N)cc2)no1` [compound 970, N-((1R,3r,5S)-8-((4-(2-aminopropan-2-yl)phenyl)sulfonyl)-8-azabicyclo[3.2.1]octan-3-yl)-5-ethylisoxazole-3-carboxamide], in that order: 89.3 nM and 748 nM.
`O=C(N[C@H]1C[C@H]2CC[C@@H](C1)N2S(=O)(=O)C[C@H]1CCCCN1)c1cc(C2CC2)on1` [compound 971, 5-cyclopropyl-N-((1R,3R,5S)-8-((((R)-piperidin-2-yl)methyl)sulfonyl)-8-azabicyclo[3.2.1]octan-3-yl)isoxazole-3-carboxamide]: the IC50 on SMYD3 [1] (setting [3]) amounted to 90.8 nM; on SMYD3 [2] (setting [3]), 466 nM.
Taken in the same sequence, the figures for `C[C@H]1C[C@@H](NC(=O)c2cc(C3CC3)on2)CCN1S(=O)(=O)N1CCC(NC(C)(C)c2ccccc2)CC1` [compound 972, 5-cyclopropyl-N-((2S,4S)-2-methyl-1-((4-((2-phenylpropan-2-yl)amino)piperidin-1-yl)sulfonyl)piperidin-4-yl)isoxazole-3-carboxamide] were 93.3 nM and 1270 nM.
`CN(CCN1CCOCC1)C1CCN(S(=O)(=O)N2[C@@H]3CC[C@H]2C[C@@H](NC(=O)c2cc(C4CC4)on2)C3)CC1` [compound 973, 5-cyclopropyl-N-((1R,3r,5S)-8-((4-(methyl(2-morpholinoethyl)amino)piperidin-1-yl)sulfonyl)-8-azabicyclo[3.2.1]octan-3-yl)isoxazole-3-carboxamide]: the figures for the IC50 on SMYD3 [1] (setting [3]) and on SMYD3 [2] (setting [3]) were 95.3 nM and 1020 nM, respectively.
For `CC[C@@H]1CN(S(=O)(=O)N2CC[C@H](NC(=O)c3cc(C4CC4)on3)C[C@@H]2C)CCN1` [compound 974, 5-cyclopropyl-N-((2S,4S)-1-(((R)-3-ethylpiperazin-1-yl)sulfonyl)-2-methylpiperidin-4-yl)isoxazole-3-carboxamide], in that order: 99 nM and 807 nM.
For `CC(C)C1CNCCN1S(=O)(=O)N1CC[C@H](NC(=O)c2cc(C3CC3)on2)C[C@@H]1C` (stereo partly drawn) [compound 975, 5-cyclopropyl-N-((2S,4S)-1-((2-isopropylpiperazin-1-yl)sulfonyl)-2-methylpiperidin-4-yl)isoxazole-3-carboxamide], in that order: 101 nM and 914 nM.
For `CN1CCCC[C@H]1CS(=O)(=O)N1[C@@H]2CC[C@H]1C[C@@H](NC(=O)c1cc(C3CC3)on1)C2` [compound 976, 5-cyclopropyl-N-((1R,3S,5S)-8-((((S)-1-methylpiperidin-2-yl)methyl)sulfonyl)-8-azabicyclo[3.2.1]octan-3-yl)isoxazole-3-carboxamide], in that order: 105 nM and 555 nM.
In the case of `CN1CC2CCC(C1)N2S(=O)(=O)N1[C@@H]2CC[C@H]1C[C@@H](NC(=O)c1cc(C3CC3)on1)C2` [compound 977, 5-cyclopropyl-N-((1R,3r,5S)-8-((3-methyl-3,8-diazabicyclo[3.2.1]octan-8-yl)sulfonyl)-8-azabicyclo[3.2.1]octan-3-yl)isoxazole-3-carboxamide], the IC50 came to 107 nM at SMYD3 [1] (setting [3]) and 742 nM at SMYD3 [2] (setting [3]).
Taken in the same sequence, the figures for `CC(C)(NC1CCN(S(=O)(=O)N2[C@@H]3CC[C@H]2C[C@@H](NC(=O)c2cc(C4CC4)on2)C3)CC1)c1ccccc1` [compound 978, 5-cyclopropyl-N-((1R,3r,5S)-8-((4-((2-phenylpropan-2-yl)amino)piperidin-1-yl)sulfonyl)-8-azabicyclo[3.2.1]octan-3-yl)isoxazole-3-carboxamide] were 117 nM and 1330 nM.
As to `CN1CCC[C@H]1CS(=O)(=O)N1[C@@H]2CC[C@H]1C[C@@H](NC(=O)c1cc(C3CC3)on1)C2` [compound 979, 5-cyclopropyl-N-((1R,3S,5S)-8-((((S)-1-methylpyrrolidin-2-yl)methyl)sulfonyl)-8-azabicyclo[3.2.1]octan-3-yl)isoxazole-3-carboxamide], the IC50 is 119 nM at SMYD3 [1] (setting [3]) and 436 nM at SMYD3 [2] (setting [3]).
For `C[C@H]1C[C@@H](NC(=O)c2cc(C3CC3)on2)CCN1S(=O)(=O)N1CCN(C)C[C@@H]1C` [compound 980, 5-cyclopropyl-N-((2S,4S)-1-(((S)-2,4-dimethylpiperazin-1-yl)sulfonyl)-2-methylpiperidin-4-yl)isoxazole-3-carboxamide], in that order: 120 nM and 697 nM.
For `O=C(N[C@H]1C[C@H]2CC[C@@H](C1)N2S(=O)(=O)[C@@H]1CCCN(CCO)C1)c1cc(C2CC2)on1` [compound 981, 5-cyclopropyl-N-((1R,3R,5S)-8-(((R)-1-(2-hydroxyethyl)piperidin-3-yl)sulfonyl)-8-azabicyclo[3.2.1]octan-3-yl)isoxazole-3-carboxamide], in that order: 127 nM and 466 nM.
